Measured values: patent publication US6713276B2, “Modulation of Aβ levels by β-secretase BACE2” (Scios, Inc., priority 2000, dated 2004)

What was measured:
APP751sw = test: cell-free β-secretase assay, β-NTF ELISA, APP751sw substrate; format: biochemical, human; conditions: membrane extracts of transfected HEK293 cells, pH 4.5, 37° C.
Experimental: The β-secretase assay consists of two different parts, an incubation or reaction phase to generate β-NTF and an ELISA part to capture and measure the β-NTF generated by β-secretase. The β-secretase ELISA was performed as follows. Each well of a 96 well plate containing a flat bottom (high protein binding, Corning, N.Y.) was coated with 100 μl of the monoclonal capture antibody 8E5 (at ˜8-10 μg/ml) (Johnson-Wood et al. Proc. Natl. Acad. Sci. USA 94: 1550-1555 [1997]). The plate was then covered with parafilm and incubated overnight at 4° C. or alternatively for 2 hours at 37° C. […]
One hundred μl of a 1:5000 dilution of a goat anti rabbit IgG-HRP in Antibody-Conjugate Buffer was then added to each well, and the plate incubated at room temperature for one hour. […] After sufficient blue color had developed, the reactions were stopped by adding 100 μl of 5N H2SO4 to each well, and the amount of βNTF was determined by reading the plate at 450 nm in a Softmax spectrophotometer.
Equal amounts of membrane extracts from either mock, BACE or BACE2 transfected HEK293 cells were incubated with partially purified full length APP751 sw or APP751wt for the indicated times. The formation of β-NTF was then determined using the respective β-NTF specific ELISA as described in General Methodology.

[1] = test system: APP751sw processing in SK-N-MC cells; test: co-transfection with APP751sw in SK-N-MC neuroblastoma cells, ELISA of conditioned medium; format: cell-based, human; conditions: co-transfected with APP751sw
Experimental: (§1) Expression vectors containing BACE and BACE2 cDNAs were transfected into HEK293T cells in the presence of APP751sw or CT100 (Shoji et al., Science 258: 126-129 [1992]; Lichtenthaler et al., Proc. Natl. Acad. Sci. USA 96: 3053-3058 [1999]). Transfections were performed in 24 well plates using Lipofectamine Plus (Gibco/BRL, Bethesda, Md.) and DNA concentrations were kept constant by including non-specific DNA. Expression plasmids were tested for BACE and BACE2 expression by Western blotting. Cell culture supernatants were collected 48 hours and 72 hours post-transfection, and assayed for α-NTF, β-NTF and Aβ formation. β-NTF measurement was performed as described below. α-NTF was captured like β-NTF but was detected with biotinylated 2H3 (Johnson-Wood et al., Proc. Nati. Acad. Sci. USA 94: 1550-1555 [1997]). Aβ levels were determined by an ELISA using monoclonal antibodies 266 for capture and biotinylated 3D6 for detection (see Johnson-Wood et al., [1997] ibid for antibody epitope description). Aβ42, in contrast, was captured using 21F 12 and detected with biotinylated 3D6. […]
We further assessed the modulatory effect of BACE2 on Aβ formation using a human neuroblastoma cell line, SK-N-MC.

[2] = test system: APP751sw processing in HEK293T cells; test: co-transfection with APP751sw in HEK293T cells, ELISA of conditioned medium; format: cell-based, human; conditions: co-transfected with APP751sw
Experimental: as §1, with “3D6. Cell extracts prepared 72 hour post-transfection were separated by SDS-PAGE (Novex) and probed with CT695 (Zymed) for APP and CTFs as well as with an Aβ specific monoclonal antibody WO2 (kindly provided by K. Beyreuther; Ida et al., J. Biol. Chem. 271: 22908-22914 [1996]).” for “3D6.”
Given the ability of BACE2 to cleave APP at the β-secretase site in vitro, we investigated the role of BACE2 in HEK293T cells relative to BACE. […] Cell supernatants were collected 48 hours or 72 hours post-transfection and analyzed for α-NTF, β-NTF, total Aβ and Aβ42 as described in Genenral Methodology. […]
In an independent experiment, we addressed whether BACE2 competed with the ability of BACE to cleave APP at the β-secretase site. HEK293T cells were co-transfected with constant amounts of APP751sw and BACE, and increasing levels of BACE2. β-NTF and Aβ levels were then measured in culture supernatant (FIG. 3). […]

[3] = test system: CT100 (C-terminal 100 amino acids of APP) processing in HEK293T cells; test: co-transfection with CT100 in HEK293T cells, ELISA, Western blot, pulse-chase; format: cell-based, human; conditions: HEK293T, co-transfected with CT100
Experimental: as §1
This effect prompted investigation into whether β-secretase cleavage was required for Aβ suppression. The effects of BACE2 on the metabolism of the C-terminal 100 amino acids of APP (CT100), a construct that mimics prior β-secretase cleavage (Shoji et al., Science 258: 126-129 [1992]), was analyzed. […]

[4] = test system: APP751sw processing in HEK293T cells; test: pulse-chase / pulse-labeling and immunoprecipitation of APP CTFs, Aβ and p3 in HEK293T cells; format: cell-based, human; conditions: HEK293T, APP751sw, 15 min pulse, chase up to 90 minutes
Experimental: Forty eight hours post-transfection, HEK293T cells were labeled for 15 minutes with 200 μCi Promix L [^35S] in vitro cell labeling mix (Amersham) and chased for up to 90 minutes according to standard procedures. APP CTFs were immunoprecipitated with antibodies 369 (Cai et al., Science 259: 514-516 [1993]). For immunoprecipitations of Aβ and p3 from conditioned medium, HEK293T cells were labeled for 5 hours with 300 μCi Promix L [^35S] in vitro cell labeling mix (Amersham) 48 hours post-transfection. Aβ40 and Aβ42 as well as the corresponding p3 species were immunoprecipitated with monoclonal antibodies 1702.1 and 108.1, respectively (Higaki et al., J. Med. Chem. 42: 3889-3898 [1999]).
To analyze the metabolism of APP as a consequence of BACE or BACE2 overexpression we performed a parallel pulse-chase experiment (FIG. 2e). HEK293T cells transfected as above were pulse-labeled and chased for up to 90 minutes and APP and CTFs were immunoprecipitated. […] An alternative β-secretase related cleavage product (β′-CTF) was also formed consistent with previous reports (Vassar et al., Science [1999] ibid; Higaki et al., Neuron 14: 651-659 [1995]). Consistent with its β-secretase activity, BACE2 overexpression led to a significant initial increase in β-CTF levels compared to mock-transfected cells. […] To determine whether BACE affected γ-secretase activity, we determined whether p3 could be formed. […]

With “BACE: β-site APP-cleaving enzyme, membrane-bound aspartyl protease, cloned from human brain cDNAs and overexpressed” the “β-NTF formation (β-secretase cleavage in vitro)” value (APP751sw) was “time-dependent increase in β-NTF formation”, the “Aβ in conditioned medium” value [1] was “very pronounced increase in both β-NTF and Aβ” and the “β-NTF in conditioned medium” value [1] was “very pronounced increase in both β-NTF and Aβ”. For the same substance, the “total Aβ in conditioned medium” value [2] was “Aβ production was not significantly stimulated”, the “α-NTF levels in conditioned medium” value [2] was “α-NTF levels were proportionally reduced” and the “total OD of α-NTF plus β-NTF” value ([2]; APP751sw alone ~2.59) was roughly 2.3 OD. For the same substance, the “total Aβ and Aβ42 levels in conditioned medium” value [3] was “did not affect the levels of Aβ” and the “APP CTF turnover (β-CTF, β′-CTF, α-CTF)” value [4] was “accumulation of β-CTF”.
